The target in one experiment is T1, TLR7 (Homo sapiens, UniProt Q9NYK1).
T1 construct: Human peripheral blood mononuclear cells (PBMCs) consist of lymphocytes, monocytes and dendritic cells that express TLR7, TLR8 and TLR9; endogenous in cells; host or cells: cryopreserved human PBMCs from healthy donors
T1 sequence (Q9NYK1 27-1049): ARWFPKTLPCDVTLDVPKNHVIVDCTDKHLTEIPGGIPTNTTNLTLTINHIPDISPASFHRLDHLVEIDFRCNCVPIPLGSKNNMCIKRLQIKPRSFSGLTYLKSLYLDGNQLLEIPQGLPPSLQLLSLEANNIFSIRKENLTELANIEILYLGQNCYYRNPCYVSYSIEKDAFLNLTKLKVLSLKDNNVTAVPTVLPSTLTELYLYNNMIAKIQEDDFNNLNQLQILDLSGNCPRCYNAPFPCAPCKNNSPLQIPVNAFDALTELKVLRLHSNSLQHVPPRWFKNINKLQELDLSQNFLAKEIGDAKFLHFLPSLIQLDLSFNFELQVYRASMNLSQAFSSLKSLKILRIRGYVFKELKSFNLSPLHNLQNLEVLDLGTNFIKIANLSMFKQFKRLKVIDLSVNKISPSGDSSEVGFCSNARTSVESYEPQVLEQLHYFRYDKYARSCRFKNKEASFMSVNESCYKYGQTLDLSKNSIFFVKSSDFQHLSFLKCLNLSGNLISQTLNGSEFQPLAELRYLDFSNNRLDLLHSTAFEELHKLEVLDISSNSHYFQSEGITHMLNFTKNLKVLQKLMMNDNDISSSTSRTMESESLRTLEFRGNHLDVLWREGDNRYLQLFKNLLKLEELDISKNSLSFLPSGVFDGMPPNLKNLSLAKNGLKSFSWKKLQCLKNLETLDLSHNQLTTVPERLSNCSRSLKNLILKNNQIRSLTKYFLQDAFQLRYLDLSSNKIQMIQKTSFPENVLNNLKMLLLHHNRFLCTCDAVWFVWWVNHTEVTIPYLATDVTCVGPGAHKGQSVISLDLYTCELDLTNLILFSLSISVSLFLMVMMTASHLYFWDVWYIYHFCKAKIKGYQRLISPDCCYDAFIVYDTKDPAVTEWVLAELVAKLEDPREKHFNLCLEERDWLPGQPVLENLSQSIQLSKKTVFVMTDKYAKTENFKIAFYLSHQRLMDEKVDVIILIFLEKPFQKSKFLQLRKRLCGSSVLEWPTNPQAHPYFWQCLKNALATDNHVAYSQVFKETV
Nature of the experiment: TLR7 human peripheral blood mononuclear cell (PBMC) cell-based assay. Particulars: human PBMCs; 1 h with test antagonist, then TLR7 agonist GS-986 400 nM for 6 h; cytokines (IL-6 and IFNα) in supernatant; read-out: TLR-7 EC50. The source says: TLR7/9 Human Peripheral Blood Mononuclear Cell (PBMC) Cell-Based Assay
Human peripheral blood mononuclear cells (PBMCs) consist of lymphocytes, monocytes and dendritic cells that express TLR7, TLR8 and TLR9. These cells respond to TLR7, TLR8 and TLR9 ligand stimulation and produce cytokines and chemokines in vitro and in vivo. Human PBMCs are therefore suitable to be used in a cell-based assay to assess the in vitro potency of a TLR 7, 8, and/or 9 antagonist.
Cryopreserved human PBMCs from healthy donors were thawed and resuspended in RPMI-1640 media with L-glutamine (Corning) supplemented with 10% Fetal Bovine Serum (Hyclone) and 1× Penicillin-Streptomycin (Corning). After counting, the cell density was adjusted to 2 million cells/ml and incubated for 1 hour at 37° C., 5% CO2 for recovery. Following the recovery, the cells were plated by adding 50 μl per well (100,000 cells) to 384-well cell culture plates (Greiner) containing 250 nl of test antagonists in 100% DMSO per well, in a 10 points dose response in quadruplicates. PBMCs were incubated in the presence of test antagonists for one hour at 37° C., 5% CO2 before being stimulated with a TLR7 or TLR9 agonist. GS-986 (Gilead Sciences) was used as the TLR7 agonist at a final concentration of 400 nM. ODN-2216 (InvivoGen) was used as the TLR9 agonist at a final concentration of 3 μM. PBMCs were incubated in the presence of the test antagonist and the TLR7 (or TLR9) agonist for an additional 6 hours at 37° C., 5% CO2. At the end of the incubation, the cell culture plates were centrifuged at 500 g for 5 min, and the cell culture supernatant was collected. The level of cytokines (IL-6 and IFNα) in the supernatant was measured by electrochemiluminescence immunoassays (Mesoscale Discovery) following manufacturer's recommended protocols. The level of cytokine measured was plotted against the test antagonist concentration and fitted to a sigmoidal function to determine the EC50, which are shown below in Table 6.

For a further experiment, the target named is T2, TLR8 (Homo sapiens, UniProt Q9NR97).
T2 construct: Human peripheral blood mononuclear cells (PBMCs) consist of lymphocytes, monocytes and dendritic cells that express TLR7, TLR8 and TLR9; endogenous in cells; host or cells: cryopreserved human PBMCs from healthy donors
T2 sequence (Q9NR97 27-1041): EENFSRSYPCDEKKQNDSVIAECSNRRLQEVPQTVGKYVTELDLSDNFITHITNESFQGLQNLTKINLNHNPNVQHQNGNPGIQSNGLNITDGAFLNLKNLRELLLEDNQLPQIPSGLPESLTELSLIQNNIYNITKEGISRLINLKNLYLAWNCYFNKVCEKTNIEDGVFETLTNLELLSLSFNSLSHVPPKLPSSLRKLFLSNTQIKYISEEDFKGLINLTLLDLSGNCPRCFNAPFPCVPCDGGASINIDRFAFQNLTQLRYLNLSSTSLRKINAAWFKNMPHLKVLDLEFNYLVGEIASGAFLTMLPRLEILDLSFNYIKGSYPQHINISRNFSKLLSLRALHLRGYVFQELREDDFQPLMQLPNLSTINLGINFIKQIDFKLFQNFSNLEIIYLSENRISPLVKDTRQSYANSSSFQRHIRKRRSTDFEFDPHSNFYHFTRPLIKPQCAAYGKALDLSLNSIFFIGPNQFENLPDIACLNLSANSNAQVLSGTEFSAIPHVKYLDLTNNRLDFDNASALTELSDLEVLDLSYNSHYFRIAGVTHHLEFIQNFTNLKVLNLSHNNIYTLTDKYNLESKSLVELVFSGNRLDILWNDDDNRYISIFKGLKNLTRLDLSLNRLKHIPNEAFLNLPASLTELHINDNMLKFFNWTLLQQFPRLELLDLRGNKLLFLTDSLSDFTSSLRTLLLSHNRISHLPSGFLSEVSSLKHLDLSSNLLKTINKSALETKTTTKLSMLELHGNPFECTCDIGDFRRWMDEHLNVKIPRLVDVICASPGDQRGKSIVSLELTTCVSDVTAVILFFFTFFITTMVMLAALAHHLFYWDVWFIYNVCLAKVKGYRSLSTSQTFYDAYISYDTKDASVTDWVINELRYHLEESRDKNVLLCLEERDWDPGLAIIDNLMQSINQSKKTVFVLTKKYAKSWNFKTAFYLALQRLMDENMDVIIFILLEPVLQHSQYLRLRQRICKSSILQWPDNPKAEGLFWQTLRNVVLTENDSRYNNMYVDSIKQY
Nature of the experiment: TLR8 human peripheral blood mononuclear cell (PBMC) cell-based assay. Particulars: human PBMCs; 1 h with antagonist, then TLR8 agonist Compound A 800 nM for 6 h; cytokines (TNFa and IL12p40) in supernatant; read-out: TLR-8 EC50. On the procedure: TLR8 Human Peripheral Blood Mononuclear Cell (PBMC) Cell-Based Assay
Cryopreserved human PBMCs from healthy donors were thawed and resuspended in RPMI-1640 media with L-glutamine (Corning) supplemented with 10% Fetal Bovine Serum (Hyclone) and 1× Penicillin-Streptomycin (Corning). After counting, the cell density was adjusted to 2 million cells/ml and incubated for 1 hour at 37° C., 5% CO2 for recovery. Following the recovery, the cells were plated by adding 50 μl per well (100,000 cells) to 384-well cell culture plates (Greiner) containing 250 nl of test antagonists in 100% DMSO per well, in a 10 points dose response in quadruplicates. PBMCs were incubated in the presence of antagonists for one hour at 37° C., 5% CO2 before being stimulated with TLR8 agonist. Compound A (Gilead Sciences, U.S. Pat. No. 10,285,990) was used as the TLR8 agonist at a final concentration of 800 nM. PBMCs were incubated in the presence of antagonist and the TLR8 agonist for an additional 6 hours at 37° C., 5% CO2. At the end of the incubation, the cell culture plates were centrifuged at 500 g for 5 min, and the cell culture supernatant was collected. The level of cytokines (TNFa and IL12p40) in the supernatant was measured by electrochemiluminescence immunoassays (Mesoscale Discovery) following manufacturer's recommended protocols. The level of cytokine measured was plotted against the antagonist concentration and fitted to a sigmoidal function to determine the EC50, which are shown below in Table 6.

By EC50 is commonly meant the midpoint of the concentration-response curve.

In the case of `Cc1c(C2CCNCC2)sc2[nH]c(-c3cn4ncnc4c4c3CCO4)c(C(C)C)c12` [Example 35], the EC50 at TLR7 stood at 0.33 nM; on TLR8, 7.88 nM.
With `Cc1c(C2CCN(C(=O)[C@@H]3C[C@H](C(F)(F)F)CN3)CC2)sc2[nH]c(-c3cn4ncnc4c4c3CCC4)c(C(C)C)c12` [Example 39], the EC50 at TLR7 is 3.4 nM; on TLR8, 5.01 nM.
For `Cc1c([C@@H]2C[C@@H]3C[C@H]2CN3CC(N)=O)sc2[nH]c(-c3cn4ncnc4c4c3CCO4)c(C(C)C)c12` [Example 38] the same measures were 0.58 nM and 0.81 nM.
For `Cc1c(-c2ccc(N3CCNCC3)cc2)sc2[nH]c(-c3cn4ncnc4c4c3CCC4)c(C(C)C)c12` [Example 21, 5-(8,9-dihydro-7H-cyclopenta[c][1,2,4]triazolo[1,5-a]pyridin-6-yl)-4-isopropyl-3-methyl-2-(4-(piperazin-1-yl)phenyl)-6H-thieno[2,3-b]pyrrole], in that order: 0.51 nM and 1.32 nM.
For `Cc1c(C2CCN(C(=O)[C@H]3C[C@H](F)CN3)CC2)sc2[nH]c(-c3cn4ncnc4c4c3CCC4)c(C(C)C)c12` [Example 17], in that order: 0.68 nM and 15.2 nM.
With `Cc1c([C@@H]2C[C@H]3CC[C@@H](C2)N3CC(N)=O)sc2[nH]c(-c3cn4ncnc4c4c3COC4)c(C(C)C)c12` [Example 49], the EC50 at TLR7 worked out at 0.41 nM; at TLR8, 15.2 nM.
For `Cc1c(C2C[C@@H]3C[C@H]2CN3)sc2[nH]c(-c3cn4ncnc4c4c3CCC4)c(C(C)C)c12` (stereo partly drawn) [Example 3] the same measures were 0.77 nM and 0.31 nM.
For `Cc1c(C2CCN(CC(N)=O)CC2)sc2[nH]c(-c3cn4ncnc4c4c3CCC4)c(C(C)C)c12` [Example 6, 2-(4-(5-(8,9-dihydro-7H-cyclopenta[c][1,2,4]triazolo[1,5-a]pyridin-6-yl)-4-isopropyl-3-methyl-6H-thieno[2,3-b]pyrrol-2-yl)piperidin-1-yl)acetamide] the same measures were 0.35 nM and 3.06 nM.
For `Cc1c(C2CCN(C(=O)[C@H]3COCCN3)CC2)sc2[nH]c(-c3cn4ncnc4c4c3CCO4)c(C(C)C)c12` [Example 37], in that order: 2.95 nM and 24.5 nM.
Turning to `CO[C@@H]1CN[C@@H](C(=O)N2CCC(c3sc4[nH]c(-c5cn6ncnc6c6c5CCC6)c(C(C)C)c4c3C)CC2)C1` [Example 19], the EC50 at TLR7 was found to be 0.14 nM; on TLR8 it was 5.42 nM.
Regarding `Cc1c(-c2cn(C3CCNCC3)nn2)sc2[nH]c(-c3cn4ncnc4c4c3CCC4)c(C(C)C)c12` [Example 24], the EC50 at TLR7 came out at 0.94 nM; on TLR8, 0.21 nM.
Regarding `Cc1c(C2CCN(CC(N)=O)CC2)sc2[nH]c(-c3cn4ncnc4c4c3COC4)c(C(C)C)c12` [Example 45], the EC50 worked out at 4 nM on TLR7 and 63.6 nM on TLR8.
For `CC(C)c1c(-c2cn3ncnc3c3c2CCC3)[nH]c2sc(C3CCN(C(=O)[C@H]4COCCN4)CC3)cc12` [Example 33] the same measures were 2.33 nM and 7.57 nM.
For `Cc1c(C2C[C@@H]3C[C@H]2CN3CC(N)=O)sc2[nH]c(-c3cn4ncnc4c4c3CCC4)c(C(C)C)c12` (stereo partly drawn) [Example 8], in that order: 0.69 nM and 0.14 nM.
For `Cc1c(C2CCN(C(=O)[C@H]3COCCN3)CC2)sc2[nH]c(-c3cn4ncnc4c4c3COC4)c(C(C)C)c12` [Example 52] the same measures were 1.17 nM and 26.7 nM.
Turning to `Cc1nc2c3c(c(-c4[nH]c5sc(C6CCN(C(=O)[C@H]7COCCN7)CC6)c(C)c5c4C(C)C)cn2n1)CCC3` [Example 53], the EC50 was determined as 0.62 nM on TLR7 and 16.2 nM at TLR8.
For `Cc1nc2c3c(c(-c4[nH]c5sc([C@@H]6C[C@@H]7C[C@H]6CN7CC(N)=O)c(C)c5c4C(C)C)cn2n1)COC3` [Example 43, 2-((1S,4R,5R)-5-(4-isopropyl-3-methyl-5-(2-methyl-7,9-dihydrofuro[3,4-c][1,2,4]triazolo[1,5-a]pyridin-6-yl)-6H-thieno[2,3-b]pyrrol-2-yl)-2-azabicyclo[2.2.1]heptan-2-yl)acetamide], in that order: 1.1 nM and 2.05 nM.
For `CC(C)c1c(-c2cn3ncnc3c3c2CCC3)[nH]c2sc(C3CCN(CC(N)=O)CC3)cc12` [Example 34] the same measures were 0.58 nM and 1.57 nM.

The values above are taken from patent US12070455B2, “Thienopyrrole compounds” (Gilead Sciences, Inc., priority 2021, dated 2024).
